Among the data in PMC8016666, “A novel combination therapy targeting ubiquitin-specific protease 5 in MYCN-driven neuroblastoma” (Oncogene, 2021) are Kd values, retold here.

This experiment deals with T1, USP5 (Homo sapiens, UniProt P45974).
T1 construct: full-length
T1 sequence (P45974 2-858): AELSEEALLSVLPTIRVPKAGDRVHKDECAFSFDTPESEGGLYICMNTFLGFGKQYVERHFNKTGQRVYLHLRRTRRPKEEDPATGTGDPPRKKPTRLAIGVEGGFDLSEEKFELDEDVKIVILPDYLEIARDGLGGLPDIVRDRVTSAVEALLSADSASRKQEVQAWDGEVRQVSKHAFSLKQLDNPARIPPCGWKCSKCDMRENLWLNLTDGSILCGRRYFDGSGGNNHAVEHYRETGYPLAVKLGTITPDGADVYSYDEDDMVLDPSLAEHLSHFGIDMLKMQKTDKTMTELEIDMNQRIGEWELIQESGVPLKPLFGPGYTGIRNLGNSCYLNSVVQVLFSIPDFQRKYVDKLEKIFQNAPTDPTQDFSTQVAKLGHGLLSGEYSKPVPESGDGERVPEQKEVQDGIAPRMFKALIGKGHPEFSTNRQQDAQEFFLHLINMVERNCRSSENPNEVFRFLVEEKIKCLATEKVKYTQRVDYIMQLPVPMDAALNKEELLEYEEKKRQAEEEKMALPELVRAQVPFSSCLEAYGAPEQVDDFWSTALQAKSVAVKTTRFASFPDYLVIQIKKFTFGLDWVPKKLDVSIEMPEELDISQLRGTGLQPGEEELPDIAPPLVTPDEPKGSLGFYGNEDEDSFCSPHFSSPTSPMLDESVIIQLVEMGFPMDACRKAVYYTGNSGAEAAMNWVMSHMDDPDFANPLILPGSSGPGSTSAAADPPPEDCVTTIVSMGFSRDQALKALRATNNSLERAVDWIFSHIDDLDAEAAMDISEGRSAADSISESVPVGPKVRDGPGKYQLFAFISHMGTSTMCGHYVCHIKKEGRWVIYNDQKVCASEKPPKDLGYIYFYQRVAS
The experiment is described as follows: microscale thermophoresis with purified labelled USP5. Type of experiment: binding. On the technique in general: In MST a laser heats a spot of the sample, and binding alters the fluorescence response.

A word on the Kd: it is the concentration at which binding is half-saturated. Read a high Kd as lower affinity. Compound `O=C(CCCCCCC(=O)Nc1ccccc1)NO` [SAHA] gave a Kd of 2760 nM.
